Test results as given in paper PMC9415896, “Total Synthesis of the Antimycobacterial Natural Product Chlorflavonin and Analogs via a Late-Stage Ruthenium(II)-Catalyzed ortho-C(sp^2)-H-Hydroxylation” (Pharmaceuticals, 2022).
Values after ≈ are worked out from the molar mass of the structure shown.

What was measured:
[1] = tested on: M. tuberculosis H37Rv; assay: Minimal inhibitory concentration (MIC) resazurin assay; type: cell-based, Mycobacterium tuberculosis
[2] = tested on: human cell lines MRC-5, HEK-293, THP-1; type: cell-based
Description: For the determination of the cytotoxicity of the compounds, different human cell lines were used. The human fetal lung fibroblast cell line MRC-5 (American Type Culture Collection) was incubated in Eagle’s Minimum Essential Medium (EMEM) containing 1% (v/v) Na-pyruvate, whereas the human embryonic kidney cell line HEK-293 (CLS Cell Lines Service GmbH) was cultivated in EMEM supplemented with 2 mM L-glutamine, 1% (v/v) non-essential amino acids, and 1 mM sodium pyruvate. The human monocyte cell line THP-1 (Deutsche Sammlung von Mikroogranismen und Zellkulturen GmbH) was cultured in RPMI 1640 medium. All media were supplemented with 10% (v/v) heat-inactivated fetal bovine serum (FBS).
The cell densities were quantified using a hemocytometer and then adjusted to 10^6 cells/mL. Next, 100 µL per well were seeded in 96-well microtiter plates to yield an inoculation cell density of […] cells per well. Compounds were added employing two-fold serial dilutions resulting in final concentrations ranging from 100 to 0.78 µM. Cells were incubated for two days at 37 °C and 5% CO2 in a humidified atmosphere. […] Fluorescence was measured in a TECAN microplate reader (excitation of 540 nm, emission of 590 nm). The percentage of growth was calculated with respect to DMSO (100% growth) and Triton X-100 (0% growth) controls.

[3] = Chemical stability in phosphate buffer (HPLC-UV); type: physicochemical
Description: Stability testing was performed in phosphate buffer pH 2.0 and 7.4 (prepared according to Ph. Eur. 10) at 20 °C over a period of 48 h. Therefore, 0.4 mg of substance was dissolved in Tween® 20 und ethanol (7/3 v/v) and diluted with the respective phosphate buffer. The solution was shaken with an IKA KS 260 basic (250 min^−1) at 25 °C for 48 h. Analysis was performed after 1, 3, 6, 24, and 48 h by comparing the area under the curve (A.U.C.), which was measured with HPLC-UV at 254 nm (n = 1).

[4] = Single-point metabolic stability in human liver microsomes; type: in vitro ADME
Description: The metabolic stability assay was performed in Human Liver Microsomes (HLM) using a single-point metabolic stability assay. Briefly, the compounds were incubated at 1 μM in 0.4 mg/mL human mixed-gender liver microsomes (Xenotech, Kansas City, KS, USA, pool of 50) for 30 min at 37 °C. Reactions were quenched by adding ice-cold acetonitrile containing internal standard. The samples were then centrifuged and analyzed by LC-MS/MS for the disappearance of the parent compound. Half-life, clearance, and hepatic […] ratios were determined using standard equations [47, 48]. Propranolol and midazolam were used as positive controls and treated similarly.

[5] = not given; remark: listed apart in the source
[6] = tested on: M. tuberculosis H37Rv; set-up: method as in Rehberg et al. [14]; conditions: ref Rehberg et al. [14], cited from earlier work
[7] = tested on: Mtb XDR clinical isolates; conditions: ref Rehberg et al. [14]; cited from earlier work
[8] = physchem; conditions: pH 7.4
[9] = physchem
[10] = tested on: human fetal lung fibroblast cell line MRC-5; conditions: ref Rehberg et al. [14]; cited from earlier work
[11] = tested on: monocyte cell line THP-1; conditions: ref Rehberg et al. [14]; cited from earlier work
[12] = tested on: Mtb; set-up: method as in PMID 9818746; conditions: Mtb-infected mice; cited from earlier work

Q: Which melting point does the source give for `COc1cc(O)c2c(=O)c(OC)c(-c3cc(F)cc(Cl)c3O)oc2c1OC` here?
A: 245 °C

Q: Which melting point does the source give for `COc1cc(O)c2c(=O)c(OC)c(-c3cccc(F)c3O)oc2c1OC` [Compound 1b] here?
A: 208.6 °C

Q: With `COc1cc(O)c2c(=O)c(OC)c(-c3cccc(C)c3O)oc2c1OC` as the compound, how does the melting point read?
A: 213.3 °C

Q: Which melting point does the source give for `COc1cc(O)c2c(=O)c(OC)c(-c3cccc(Cl)c3Cl)oc2c1OC` here?
A: 184.8 °C

Q: Which results are given for `COc1cc(O)c2c(=O)c(OC)c(-c3cccc(Br)c3O)oc2c1OC` [BF, bromflavonin]?
A: Minimal Inhibitory Concentrations (MIC90) [1]: 0.78 μm; antimycobacterial activity ([1]; Mtb H37Rv, in words): submicromolar; cytotoxicity toward human cells [2]: no cytotoxicity; drug content after 48 h ([3]; phosphate buffer pH 2.0, 48 h): 99%; drug content after 48 h ([3]; phosphate buffer pH 7.4, 48 h): 99%; CLint, app (predicted in vivo intrinsic clearance) [4]: 53.4; Water solubility at pH 7.4 [5]: <5 μM

Q: For `COc1cc(O)c2c(=O)c(OC)c(-c3cccc(Br)c3OC(F)F)oc2c1OC`, which melting point is on record?
A: 162.4 °C

Q: Which melting point does the source give for `COc1cc(O)c2c(=O)c(OC)c(-c3cccc(Br)c3F)oc2c1OC` [Compound 1f] here?
A: 217.4 °C

Q: With `COc1cc(O)c2c(=O)c(OC)c(-c3cccc(Cl)c3)oc2c1OC` as the compound, how does the melting point read?
A: 188.3 °C

Q: For `COc1cc(O)c2c(=O)c(OC)c(-c3cccc(Cl)c3O)oc2c1OC` [CF, chlorflavonin], which “drug content after 48 h” value ([3]; phosphate buffer pH 2.0, 48 h) is on record?
A: 99%

Q: What about the “drug content after 48 h” value ([3]; phosphate buffer pH 7.4, 48 h) of the same compound?
A: 99%

Q: What about the “remaining after 30 min” value ([4]; 1 μM, human liver microsomes 0.4 mg/mL, 30 min, 37 °C) of the same compound?
A: 48%

Q: And the melting point?
A: 213.7 °C

Q: What about the “effect of mono treatment” value ([6]; mono treatment with CF) of the same compound?
A: bacteriostatic effect

Q: And the MIC90 ([6]; virulent Mtb H37Rv, in vitro growth inhibition)?
A: 1.56 µM (≈ 0.591 µg/mL)

Q: What about the combination effect ([6]; with delamanid and isoniazid, including intracellular activity against infected human macrophages) of the same compound?
A: synergistic efficacy

Q: And the “in vitro growth inhibition” value [7]?
A: strong in vitro growth inhibition

Q: And the solubility at 24 h [8]?
A: < 5 µM

Q: And the pKa ([9]; pKa1 (2′-OH))?
A: 6.8 ± 0.07

Q: And the pKa ([9]; pKa2 (5-OH))?
A: 10.4

Q: What about the cytotoxicity [10] of the same compound?
A: no cytotoxicity

Q: What about the cytotoxicity [11] of the same compound?
A: no cytotoxicity

Q: Which melting point does the source give for `COc1cc(O)c2c(=O)c(OC)c(-c3cccc(Br)c3O)oc2c1OC` [Compound 1a] here?
A: 210.2 °C

Q: For `COc1cc(O)c2c(=O)c(OC)c(-c3cccc(I)c3O)oc2c1OC` [Compound 1c], which melting point is on record?
A: 223.4 °C

Q: For `COc1cc(O)c2c(=O)c(OC)c(-c3cccc(C(F)(F)F)c3O)oc2c1OC` [Compound 1d], which melting point is on record?
A: 195.4 °C

Q: With `COC(=O)c1ccccc1S(=O)(=O)NC(=O)Nc1nc(C)cc(C)n1` [sulfometuron methyl] as the compound, how does the “proliferation of the pathogen in the host's lungs” value [12] read?
A: significantly reduced proliferation

Q: For `COc1cc(O)c2c(=O)c(OC)c(-c3ccc(Cl)cc3O)oc2c1OC`, which melting point is on record?
A: 240.7 °C

Q: With `COc1cc(O)c2c(=O)c(OC)c(-c3cc(F)cc(Br)c3O)oc2c1OC` [Compound 1i] as the compound, how does the melting point read?
A: 251.4 °C

Q: Which melting point does the source give for `COc1cc(O)c2c(=O)c(OC)c(-c3ccc(Cl)c(O)c3)oc2c1OC` here?
A: 48 °C
